Tests used:
Assay type in all cases: in vivo
[1] = tested on: crabgrass, large (large crabgrass, Digitaria sanguinalis); assay: Test A pre-/postemergence: crabgrass, large; settings: for Crabgrass, Large plant response rating: Postemergence; for Plant response rating, Crabgrass, Large: Preemergence
Method in brief: (§1)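 Seeds were sown in loam/sand blend and sprayed preemergence (directed soil spray) and, simultaneously, postemergence at 2–10 cm, one- to two-leaf stage, using compounds in non-phytotoxic solvent with surfactant. After ~10 days in greenhouse, injury was rated visually versus untreated controls, 0 (no effect) to 100 (complete control).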

[2] = tested on: barnyardgrass (Echinochloa crus-galli); assay: Test B flooded paddy: barnyardgrass; settings: Flood; 250 g ai/ha; applied to paddy water at 2-leaf stage; visually evaluated after 13 to 15 days
Method in brief: (§2)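 Greenhouse assay lasting 13 to 15 days. Treatment was into water flooding pots 3 cm deep, at the 2-leaf stage, with that level sustained afterwards. Scores compare treated with control plants visually, 100 denoting complete control and 0 no effect; a dash marks no test result.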

[3] = tested on: ducksalad (Heteranthera limosa); assay: Test B flooded paddy: ducksalad; settings: Flood; 250 g ai/ha; applied to paddy water at 2-leaf stage; visually evaluated after 13 to 15 days
Method in brief: as §2

[4] = tested on: sedge, umbrella (small-flower umbrella sedge Cyperus difformis); assay: Test B flooded paddy: sedge, umbrella; settings: Flood; 250 g ai/ha; applied to paddy water at 2-leaf stage; visually evaluated after 13 to 15 days
Method in brief: as §2

[5] = tested on: morningglory (Ipomoea spp.); assay: Test A pre-/postemergence: morningglory; settings: for Morningglory plant response rating: Postemergence; for Plant response rating, Morningglory: Preemergence
Method in brief: as §1

[6] = tested on: rice (Oryza sativa); assay: Test B flooded paddy: rice; settings: Flood; 250 g ai/ha; applied to paddy water at 2-leaf stage; visually evaluated after 13 to 15 days
Method in brief: as §2

[7] = tested on: wheat (Triticum aestivum); assay: Test A pre-/postemergence: wheat; settings: for Wheat plant response rating: Postemergence; for Plant response rating, Wheat: Preemergence
Method in brief: as §1

[8] = tested on: corn (Zea mays); assay: Test A pre-/postemergence: corn; settings: for Corn plant response rating: Postemergence; for Plant response rating, Corn: Preemergence
Method in brief: as §1

[9] = tested on: barnyardgrass (Echinochloa crus-galli); assay: Test A pre-/postemergence: barnyardgrass; settings: for Barnyardgrass plant response rating: Postemergence; for Plant response rating, Barnyardgrass: Preemergence
Method in brief: as §1

[10] = tested on: pigweed (Amaranthus retroflexus); assay: Test A pre-/postemergence: pigweed; settings: for Pigweed plant response rating: Postemergence; for Plant response rating, Pigweed: Preemergence
Method in brief: as §1

[11] = tested on: velvetleaf (Abutilon theophrasti); assay: Test A pre-/postemergence: velvetleaf; settings: for Velvetleaf plant response rating: Postemergence; for Plant response rating, Velvetleaf: Preemergence
Method in brief: as §1

[12] = tested on: foxtail, giant (giant foxtail, Setaria faberii); assay: Test A pre-/postemergence: foxtail, giant; settings: for Foxtail, Giant plant response rating: Postemergence; for Plant response rating, Foxtail, Giant: Preemergence
Method in brief: as §1

[13] = 125 g ai/ha, 0 to 100 scale, 0 is no effect, 100 is complete control
[14] = 500 g ai/ha, visual rating on 0 to 100 scale (0 no effect, 100 complete control), approximately ten days
[15] = 125 g ai/ha, 0 to 100 scale (0 no effect, 100 complete control)
[16] = 500 g ai/ha, 0 to 100 scale, 0 is no effect, 100 is complete control

SMILES | Crabgrass, Large plant response rating [1, 13] | Crabgrass, Large plant response rating [1, 14] | Plant response rating, Crabgrass, Large [1, 15] | Plant response rating, Crabgrass, Large [1, 16] | Plant response rating, Barnyardgrass (0 to 100 scale, 0 is no effect, 100 is complete control) [2] | Plant response rating, Ducksalad (0 to 100 scale, 0 is no effect, 100 is complete control) [3] | Plant response rating, Sedge, Umbrella (0 to 100 scale, 0 is no effect, 100 is complete control) [4] | Plant response rating, Rice (0 to 100 scale, 0 is no effect, 100 is complete control) [6] | Wheat plant response rating [7, 13] | Wheat plant response rating [7, 14] | Plant response rating, Wheat [7, 15] | Plant response rating, Wheat [7, 16] | Corn plant response rating [8, 13] | Corn plant response rating [8, 14] | Plant response rating, Corn [8, 15] | Plant response rating, Corn [8, 16] | Barnyardgrass plant response rating [9, 13] | Barnyardgrass plant response rating [9, 14] | Plant response rating, Barnyardgrass [9, 15] | Plant response rating, Barnyardgrass [9, 16] | other results
Cc1nn(-c2ccccc2)nc1C(=O)c1cccc(C(F)(F)F)c1 [Compound 43] | 30 | 40 | 30 | 80 | 0 | 85 | 100 | 0 | 0 | 30 | 0 | 0 | 20 | 30 | 0 | 10 | 10 | 20 | 0 | 20 | Morningglory plant response rating [5, 13]: 0; Morningglory plant response rating [5, 14]: 40; Pigweed plant response rating [10, 13]: 50; Pigweed plant response rating [10, 14]: 70; Plant response rating, Pigweed [10, 15]: 50; Plant response rating, Pigweed [10, 16]: 60; Velvetleaf plant response rating [11, 13]: 20; Velvetleaf plant response rating [11, 14]: 20; Plant response rating, Velvetleaf [11, 15]: 0; Plant response rating, Velvetleaf [11, 16]: 0; Foxtail, Giant plant response rating [12, 13]: 20; Foxtail, Giant plant response rating [12, 14]: 30; Plant response rating, Foxtail, Giant [12, 15]: 20; Plant response rating, Foxtail, Giant [12, 16]: 90
Cc1nn(-c2ccc(F)cc2)nc1Oc1ccc(F)c(C(F)(F)F)c1 [Compound 56] | 50 | 80 | 90 | 100 | 30 | 80 | 80 | 40 | 10 | 20 | 0 | 10 | 10 | 20 | 0 | 10 | 10 | 30 | 0 | 80 | Plant response rating, Morningglory [5, 15]: 0; Plant response rating, Morningglory [5, 16]: 10; Pigweed plant response rating [10, 13]: 100; Pigweed plant response rating [10, 14]: 100; Plant response rating, Pigweed [10, 15]: 30; Plant response rating, Pigweed [10, 16]: 90; Velvetleaf plant response rating [11, 13]: 40; Velvetleaf plant response rating [11, 14]: 90; Plant response rating, Velvetleaf [11, 15]: 0; Plant response rating, Velvetleaf [11, 16]: 10; Foxtail, Giant plant response rating [12, 13]: 20; Foxtail, Giant plant response rating [12, 14]: 80; Plant response rating, Foxtail, Giant [12, 15]: 30; Plant response rating, Foxtail, Giant [12, 16]: 100
Cc1nn(-c2ccc(F)cc2Cl)nc1Cc1ccnc(C(F)(F)F)c1 [Compound 65] | 20 | 50 | 30 | 100 | 30 | 60 | 75 | 25 | 0 | 20 | 0 | 0 | 10 | 20 | 0 | 10 | 10 | 40 | 10 | 70 | Plant response rating, Morningglory [5, 15]: 10; Plant response rating, Morningglory [5, 16]: 20; Pigweed plant response rating [10, 13]: 90; Pigweed plant response rating [10, 14]: 100; Plant response rating, Pigweed [10, 15]: 80; Plant response rating, Pigweed [10, 16]: 100; Velvetleaf plant response rating [11, 13]: 30; Velvetleaf plant response rating [11, 14]: 60; Plant response rating, Velvetleaf [11, 15]: 0; Plant response rating, Velvetleaf [11, 16]: 10; Foxtail, Giant plant response rating [12, 13]: 20; Foxtail, Giant plant response rating [12, 14]: 70; Plant response rating, Foxtail, Giant [12, 15]: 90; Plant response rating, Foxtail, Giant [12, 16]: 100
Cc1cc(Oc2nn(-c3ccc(F)cc3)nc2C)ccc1F [Compound 86] | 0 | 0 | 0 | 0 | 0 | 0 | 50 | 0 | 0 | 0 | 0 | 0 | 0 | 0 | 0 | 0 | 0 | 0 | 0 | 0 | Morningglory plant response rating [5, 13]: 0; Morningglory plant response rating [5, 14]: 0; Plant response rating, Morningglory [5, 15]: 0; Plant response rating, Morningglory [5, 16]: 0; Pigweed plant response rating [10, 13]: 0; Pigweed plant response rating [10, 14]: 0; Plant response rating, Pigweed [10, 15]: 0; Plant response rating, Pigweed [10, 16]: 0; Velvetleaf plant response rating [11, 13]: 0; Velvetleaf plant response rating [11, 14]: 0; Plant response rating, Velvetleaf [11, 15]: 0; Plant response rating, Velvetleaf [11, 16]: 0; Foxtail, Giant plant response rating [12, 13]: 0; Foxtail, Giant plant response rating [12, 14]: 0; Plant response rating, Foxtail, Giant [12, 15]: 0; Plant response rating, Foxtail, Giant [12, 16]: 0

Reference: patent publication US9302999B2, “Substituted triazoles as herbicides” (E. I. DU PONT DE NEMOURS AND COMPANY, priority 2012, dated 2016)
